According to patent US8637526B2, “Pyrazolopyrimidine JAK inhibitor compounds and methods” (Genentech, Inc., priority 2008, dated 2014):
Read-outs that look alike come from different tables or passages of the source.

What was measured:
TF-1 cells [1] = assay: IL-6-stimulated STAT3 phosphorylation in TF-1 cells (JAK1-dependent signaling, MSD); format: cell-based; settings: Homo sapiens, read-out: IL6-pSTAT3 TF1 EC50
Protocol: (§1) The activities of compounds were determined in cell-based assays that are designed to measure JAK1 or JAK2-dependent signaling. Compounds were serially diluted in DMSO and incubated with TF-1 cells (American Type Culture Collection (ATCC); Manassas, Va.) in 384-well microtiter plates in OptiMEM medium without phenol red, 1% Charcoal/Dextran stripped FBS, 0.1 mM NEAA, 1 mM sodium pyruvate (Invitrogen Corp.; Carlsbad, Calif.) at a final cell density of 100,000 cells per well and a final DMSO concentration of 0.2%. Human recombinant IL-6 (R&D systems; Minneapolis, Minn.) or EPO (Invitrogen Corp.; Carlsbad, Calif.) was then added at a final concentration of 30 ng/mL or 10 Units/mL, respectively, to the microtiter plates containing the TF-1 cells and compound and the plates were incubated for 30 min at 37° C. Compound-mediated effects on STAT3 or STATS phosphorylation were then measured in the lysates of cells incubated in the presence of IL-6 or EPO, respectively, using the Meso Scale Discovery (MSD) technology (Gaithersburg, Md.) according to the manufacturer's protocol and EC50 values were determined.

human JAK1 kinase domain = human JAK1 kinase domain (Homo sapiens (Human), UniProt P23458); assay: JAK1 Inhibition Assay Protocol (Caliper LabChip peptide phosphorylation); format: biochemical; settings: enzymatic activity, 25 uM ATP
human JAK1 kinase domain, sequence (P23458 852-1154): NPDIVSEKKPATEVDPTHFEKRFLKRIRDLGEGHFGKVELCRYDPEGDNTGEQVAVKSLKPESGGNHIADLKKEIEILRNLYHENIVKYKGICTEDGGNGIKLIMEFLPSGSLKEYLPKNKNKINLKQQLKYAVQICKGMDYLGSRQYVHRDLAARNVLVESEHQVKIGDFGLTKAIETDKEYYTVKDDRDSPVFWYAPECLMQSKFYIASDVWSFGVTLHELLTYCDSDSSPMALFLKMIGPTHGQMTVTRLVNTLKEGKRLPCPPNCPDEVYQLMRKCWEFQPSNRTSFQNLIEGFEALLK
Source text: The catalytically active kinase domain of human JAK1, JAK2, JAK3 or TYK2 was purified from extracts of SF9 insect cells infected with a recombinant baculovirus expression vector encoding the human JAK1, JAK2, JAK3 or TYK2 kinase domains (JAK1 amino acid residues N852-D1154 according to the numbering of GenBank sequence accession number P23458, JAK2 amino acid residues D812-G1132 according to the numbering of GenBank sequence accession number NP_004963.1; JAK3 amino acid residues S783-S1124 according to the numbering of GenBank sequence accession number P52333, and TYK2 amino acid residues N873-C1187 according to the numbering of GenBank sequence accession number P29597). The activity of the JAK1, JAK2, JAK3 or TYK2 kinase domains can be measured by a number of direct and indirect methods, including quantification of phosphorylation of peptide substrates derived from the human JAK3 protein (Saltzman et al., Biochem. Biophys. Res. Commun. 246:627-633 (2004)). The activity of the JAK1, JAK2, JAK3 or TYK2 kinase domains was measured in vitro by monitoring phosphorylation of JAK3 derived peptides using the Caliper LabChip technology.
(§2) The activity of the isolated JAK1 or TYK2 kinase domain was measured by monitoring phosphorylation of a peptide derived from JAK3 ([…] fluorescently labeled on the N-terminus with 5-carboxyfluorescein using the Caliper LabChip technology (Caliper Life Sciences, Hopkinton, Mass.). […] Reactions were incubated at 22° C. in 384-well polypropylene microtiter plates for 30 minutes and then stopped by addition of 25 uL of an EDTA containing solution (100 mM Hepes pH 7.2, 0.015% Brij-35, 150 mM EDTA), resulting in a final EDTA concentration of 50 mM. After termination of the kinase reaction, the proportion of phosphorylated product was determined as a fraction of total peptide substrate using the Caliper LabChip 3000 according to the manufacturer's specifications. Ki values were then determined using the Morrison tight binding model (Morrison, J. F., Biochim. Biophys. Acta. 185:269-296 (1969); William, J. W. and Morrison, J. F., Meth. Enzymol., 63:437-467 (1979)).

human JAK3 kinase domain = human JAK3 kinase domain (Homo sapiens (Human), UniProt P52333); assay: biochemical; format: biochemical
human JAK3 kinase domain, sequence (P52333 783-1124): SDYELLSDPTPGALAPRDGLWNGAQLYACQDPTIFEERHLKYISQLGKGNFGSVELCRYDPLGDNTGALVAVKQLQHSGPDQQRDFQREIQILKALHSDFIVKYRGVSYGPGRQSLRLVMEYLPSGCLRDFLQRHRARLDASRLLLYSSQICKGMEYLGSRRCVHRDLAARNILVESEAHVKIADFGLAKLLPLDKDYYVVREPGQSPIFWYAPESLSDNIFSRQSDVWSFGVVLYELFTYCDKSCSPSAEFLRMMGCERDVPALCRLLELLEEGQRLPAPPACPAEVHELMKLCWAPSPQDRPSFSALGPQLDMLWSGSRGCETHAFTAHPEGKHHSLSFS
Protocol: The activity of the JAK1, JAK2, JAK3 or TYK2 kinase domains was measured in vitro by monitoring phosphorylation of JAK3 derived peptides using the Caliper LabChip technology.
as §2, with “JAK3” for “JAK1 or TYK2”, “specifications.” for “specifications. Ki values were then determined using the Morrison tight binding model (Morrison, J. F., Biochim. Biophys. Acta. 185:269-296 (1969); William, J. W. and Morrison, J. F., Meth. Enzymol., 63:437-467 (1979)).”

[2] = test system: Set-2 cells, which express the JAK2V617F mutant protein; assay: STAT5 phosphorylation in Set-2 cells (JAK2-dependent signaling, MSD); format: cell-based; settings: Homo sapiens, read-out: pSTAT5 SET2 EC50
Protocol: The activities of compounds were determined in cell-based assays that are designed to measure JAK2-dependent signaling or proliferation. Compounds were serially diluted in DMSO and incubated with Set-2 cells (German Collection of Microorganisms and Cell Cultures (DSMZ); Braunschweig, Germany), which express the JAK2V617F mutant protein, in 96-well microtiter plates for 1 hr at 37° C. in RPMI medium at a final cell density of 100,000 cells per well and a final DMSO concentration of 0.57%. Compound-mediated effects on STATS phosphorylation were then measured in the lysates of incubated cells using the Meso Scale Discovery (MSD) technology (Gaithersburg, Md.) according to the manufacturer's protocol and EC50 values were determined. Alternatively, serially diluted compounds were added to 384-well microtiter plates in RPMI medium with 10% fetal bovine serum (Invitrogen Corp.; Carlsbad, Calif.) at a final cell density of 2500 cells per well and a final DMSO concentration of 0.3% and incubated at 37° C. for 72 hours. Cell viability was then determined using the CellTiter-Glo® Luminescent Cell Viability Assay according to the manufacturer's protocol (Promega; Madison, Wis.) and EC50 values were determined.

TF-1 cells [3] = assay: EPO-stimulated STAT5 phosphorylation in TF-1 cells (JAK2-dependent signaling, MSD); format: cell-based; settings: Homo sapiens, read-out: EPO pSTAT5 TF1 EC50
Protocol: as §1

[4] = 0.5 h, TF-1 cells, IL-6 30 ng/mL, 30 min
[5] = enzymatic activity, 5 uM ATP, read-out: JAK3 Ki
[6] = 0.5 h, TF-1 cells, EPO 10 Units/mL, 30 min

SMILES | EC50 (TF-1 cells [1]; [4]) | Ki (human JAK1 kinase domain) | Ki (human JAK3 kinase domain; [5]) | EC50 ([2]; Set-2 cells, 1 hr incubation) | EC50 (TF-1 cells [3]; [6]) | EC50 (TF-1 cells [1]; TF-1, 0.5 h) | EC50 ([2]; SET-2, 1 h) | EC50 (TF-1 cells [3]; TF-1, 0.5 h) | Ki (human JAK3 kinase domain)
Cc1cc(NC(=O)c2cnn3ccc(N)nc23)n(-c2cc(Cl)ccc2C)n1 [Example 226] | 170 nM | 7.4 nM | 15.7 nM | 17 nM | 103 nM |  |  |  | 
Cc1nc(-c2ccccc2C)c(NC(=O)c2cnn3ccc(N)nc23)s1 [Example 231, 5-amino-pyrazolo[1,5-a]pyrimidine-3-carboxylic acid (2-methyl-4-o-tolyl-thiazol-5-yl)-amide] |  | 15.2 nM | 12.4 nM |  |  | 371 nM | 80.2 nM | 230 nM | 
O=C(NC1CCOCC1)c1cnn2ccc(NC3Cc4ccccc4C3)nc12 [Example 297, 5-(Indan-2-ylamino)-pyrazolo[1,5-a]pyrimidine-3-carboxylic acid (tetrahydro-pyran-4-yl)-amide] | 1400 nM | 46.6 nM | 39.7 nM | 170 nM | 207 nM |  |  |  | 
O=C(N[C@H]1CC[C@H](O)CC1)c1cnn2ccc(NC3CCc4ccccc43)nc12 (stereo partly shown) [Example 299, 5-(Indan-1-ylamino)-pyrazolo[1,5-a]pyrimidine-3-carboxylic acid (4-hydroxy-cyclohexyl)-amide] | 1880 nM | 28.7 nM |  | 256 nM | 228 nM |  |  |  | 14.5 nM
Cc1cc(NC(=O)c2cnn3ccc(N)nc23)n(-c2ccccc2C)n1 [Example 343, 5-Amino-pyrazolo[1,5-a]-pyrimidine-3-carboxylic acid (5-methyl-2-o-tolyl-2H-pyrazol-3-yl)-amide] | 380 nM | 29.9 nM | 28.6 nM | 301 nM | 368 nM |  |  |  | 

Further compounds by falling EC50 (TF-1 cells [1]; [4]), results first:

EC50 (TF-1 cells [1]; [4]) | Ki (human JAK1 kinase domain) | Ki (human JAK3 kinase domain; [5]) | EC50 ([2]; Set-2 cells, 1 hr incubation) | EC50 (TF-1 cells [3]; [6]) | SMILES | EC50 (TF-1 cells [1]; TF-1, 0.5 h) | EC50 ([2]; SET-2, 1 h) | EC50 (TF-1 cells [3]; TF-1, 0.5 h) | Ki (human JAK3 kinase domain)
1600 nM | 36 nM | 95.1 nM | 365 nM | 735 nM | Cc1cc(NC(=O)c2cnn3ccc(Nc4cccc(C(F)(F)F)c4)nc23)on1 [Example 240, 5-(3-Trifluoromethyl-phenylamino)-pyrazolo-[1,5-a]pyrimidine-3-carboxylic acid (3-methyl-isoxazol-5-yl)-amide] |  |  |  | 
514 nM | 17.6 nM | 25.4 nM | 43.4 nM | 148 nM | Nc1ccn2ncc(C(=O)Nc3ccnn3-c3cc(Cl)ccc3Cl)c2n1 [Example 277, 5-Amino-pyrazolo[1,5-a]-pyrimidine-3-carboxylic acid [2-(2,5-dichloro-phenyl)-2H-pyrazol-3-yl]-amide] |  |  |  | 
165 nM | 2.8 nM | 1.7 nM | 18 nM | 55.3 nM | Nc1ccn2ncc(C(=O)Nc3c[nH]nc3-c3cc(Cl)ccc3Cl)c2n1 [Example 248, 5-Amino-pyrazolo[1,5-a]-pyrimidine-3-carboxylic acid [3-(2,5-dichloro-phenyl)-1H-pyrazol-4-yl]-amide] |  |  |  | 
